Reference: PubChem BioAssay AID248 (DTP/NCI, 2004)
“And” between values parts separate entries of the source, which are not always exact repeats. Equal values may be shown once. Inconclusive results and toxic doses are left out.

Tested on: L1210 leukemia ip in BDF1 mice, survival T/C
Assay: NCI In Vivo Anticancer Drug Screen. Data for tumor model L1210 Leukemia (intraperitoneal) in B6D2F1 (BDF1) mice
Conditions: endpoint: mean survival time, higher = longer survival
Method in brief: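 Read-out is survival time, reported as the treated-group measurement over the vehicle-control measurement.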

[1] = dose: 50.0 mg/kg/injection, schedule: Q01DX001 (ip), vehicle: other
[2] = dose: 100.0 mg/kg/injection, schedule: Q01DX001 (ip), vehicle: other
[3] = dose: 200.0 mg/kg/injection, schedule: Q01DX001 (ip), vehicle: other
[4] = dose: 400.0 mg/kg/injection, schedule: Q01DX001 (ip), vehicle: other
[5] = dose: 100.0 mg/kg/injection, schedule: Q04DX002 (ip), vehicle: Klucel (hydroxypropylcellulose) (HPC)
[6] = dose: 200.0 mg/kg/injection, schedule: Q04DX002 (ip), vehicle: Klucel (hydroxypropylcellulose) (HPC)
[7] = dose: 400.0 mg/kg/injection, schedule: Q04DX002 (ip), vehicle: Klucel (hydroxypropylcellulose) (HPC)
[8] = dose: 100.0 mg/kg/injection, schedule: Q01DX009 (ip), vehicle: saline with Tween-80

`CC(C)(C)C1CCC(OC=O)CC1` (stereo not given) was tested, and the T/C (dose: 100.0 mg/kg/injection, schedule: Q04DX003 (ip), vehicle: Klucel (hydroxypropylcellulose) (HPC)) was 92 % of control and the T/C (dose: 200.0 mg/kg/injection, schedule: Q04DX003 (ip), vehicle: Klucel (hydroxypropylcellulose) (HPC)) was 93 % of control.

With `COc1cccc(/C=N\NC(=O)CCCC(=O)N/N=C/c2cccc(OC)c2OC)c1OC` the T/C [1] was 91 % of control, the T/C [2] was 91 % of control and the T/C [3] was 91 % of control. The T/C [4] was 91 % of control.

For `O=C1C=CC(=O)c2c1ccc1ccccc21`, the T/C (dose: 12.5 mg/kg/injection, schedule: Q04DX003 (ip), vehicle: saline) was 102 % of control, the T/C (dose: 25.0 mg/kg/injection, schedule: Q04DX003 (ip), vehicle: saline) was 96 % of control and the T/C (dose: 50.0 mg/kg/injection, schedule: Q04DX003 (ip), vehicle: saline) was 101 % of control.

For `O=C(CCCCl)CC(O)(C(F)(F)Cl)C(F)(F)Cl`, the T/C (dose: 100.0 mg/kg/injection, schedule: Q04DX003 (ip), vehicle: saline with Tween-80) was 104 % of control and the T/C (dose: 200.0 mg/kg/injection, schedule: Q04DX003 (ip), vehicle: saline with Tween-80) was 102 % of control.

For `CC12CCC3C(CCC4CC5SC5CC43C)C1CCC2O` (stereo not given), the T/C [5] was 108 % of control, the T/C [6] was 111 % of control and the T/C [7] was 101 % of control.

For `CN1CCN(P(=O)(c2ccccc2)N2CCN(C)CC2)CC1`, the T/C (dose: 100.0 mg/kg/injection, schedule: Q04DX002 (ip), vehicle: saline with Tween-80) was 98 % of control, the T/C (dose: 200.0 mg/kg/injection, schedule: Q04DX002 (ip), vehicle: saline with Tween-80) was 98 % of control and the T/C (dose: 400.0 mg/kg/injection, schedule: Q04DX002 (ip), vehicle: saline with Tween-80) was 98 % of control.

`CCc1ccc(N=C(C)c2c(O)cc(C)oc2=O)cc1` was tested, and the T/C (dose: 100.0 mg/kg/injection, schedule: Q01DX009 (ip), vehicle: Klucel (hydroxypropylcellulose) (HPC)) was 96 % of control, the T/C (dose: 200.0 mg/kg/injection, schedule: Q01DX009 (ip), vehicle: Klucel (hydroxypropylcellulose) (HPC)) was 100 % of control and the T/C (dose: 400.0 mg/kg/injection, schedule: Q01DX009 (ip), vehicle: Klucel (hydroxypropylcellulose) (HPC)) was 96 % of control.

`N#CCC(=O)O` was tested, and the T/C (dose: 18.75 mg/kg/injection, schedule: Q01DX009 (ip), vehicle: saline) was 98 % of control, the T/C (dose: 37.5 mg/kg/injection, schedule: Q01DX009 (ip), vehicle: saline) was 95 % of control and the T/C (dose: 75.0 mg/kg/injection, schedule: Q01DX009 (ip), vehicle: saline) was 90 % of control.

With `O=S1(=O)CC(Cl)C(Cl)C1` (stereo not given) the T/C (dose: 1.56 mg/kg/injection, schedule: Q01DX009 (ip), vehicle: saline) was 90 % of control, the T/C (dose: 3.12 mg/kg/injection, schedule: Q01DX009 (ip), vehicle: saline) was 91 % of control and the T/C (dose: 6.25 mg/kg/injection, schedule: Q01DX009 (ip), vehicle: saline) was 91 % of control. For the same molecule, the T/C (dose: 12.5 mg/kg/injection, schedule: Q01DX001 (ip), vehicle: other) was 94 % of control, the T/C (dose: 12.5 mg/kg/injection, schedule: Q01DX001 (ip), vehicle: saline with Tween-80) was 98 % of control and the T/C (dose: 12.5 mg/kg/injection, schedule: Q01DX009 (ip), vehicle: other) was 90 % of control. The T/C (dose: 12.5 mg/kg/injection, schedule: Q01DX009 (ip), vehicle: saline) was 98 % of control, the T/C (dose: 12.5 mg/kg/injection, schedule: Q04DX003 (ip), vehicle: Klucel (hydroxypropylcellulose) (HPC)) was 106 % of control and the T/C (dose: 25.0 mg/kg/injection, schedule: Q01DX001 (ip), vehicle: other) was 95 % of control. For the same molecule, the T/C (dose: 25.0 mg/kg/injection, schedule: Q01DX001 (ip), vehicle: saline with Tween-80) was 100 % of control, the T/C (dose: 25.0 mg/kg/injection, schedule: Q04DX003 (ip), vehicle: Klucel (hydroxypropylcellulose) (HPC)) was 108 % of control and the T/C (dose: 25.0 mg/kg/injection, schedule: Q04DX003 (ip), vehicle: saline with Tween-80) was 101 % of control. The T/C [1] was 95 % of control, the T/C (dose: 50.0 mg/kg/injection, schedule: Q04DX003 (ip), vehicle: Klucel (hydroxypropylcellulose) (HPC)) was 92 % of control and the T/C (dose: 50.0 mg/kg/injection, schedule: Q04DX003 (ip), vehicle: saline with Tween-80) was 90 % of control.

`Cc1ccccc1Nc1cc(=O)[nH]c(N)n1` was tested, and the T/C (dose: 100.0 mg/kg/injection, schedule: Q01DX Z (ip), vehicle: methylcellulose (MC)) was 102 % of control and the T/C (dose: 200.0 mg/kg/injection, schedule: Q01DX Z (ip), vehicle: methylcellulose (MC)) was 102 % of control.

`O=[N+]([O-])c1ccc(C(SCc2ccccc2)SCc2ccccc2)cc1` was tested, and the T/C (dose: 75.0 mg/kg/injection, schedule: Q01DX001 (ip), vehicle: carboxymethylcellulose (CMC)) was 97 % of control, the T/C (dose: 150.0 mg/kg/injection, schedule: Q01DX001 (ip), vehicle: carboxymethylcellulose (CMC)) was 100 % of control and the T/C (dose: 300.0 mg/kg/injection, schedule: Q01DX001 (ip), vehicle: carboxymethylcellulose (CMC)) was 97 % of control.

In the case of `C=C1C(=O)OC2C1CCC(=C)C1CC(O)C(=C)C12` (stereo not given), the T/C (dose: 67.0 mg/kg/injection, schedule: Q01DX009 (ip), vehicle: saline with Tween-80) is reported as 103 % of control and the T/C [8] is reported as 105 % of control.

In the case of `CSc1n[nH]c(N)n1`, the T/C [8] is reported as 92 % of control, the T/C (dose: 200.0 mg/kg/injection, schedule: Q01DX009 (ip), vehicle: saline with Tween-80) is reported as 92 % of control and the T/C (dose: 400.0 mg/kg/injection, schedule: Q01DX009 (ip), vehicle: saline with Tween-80) is reported as 92 % of control.

For `NC(=O)COc1ccc(Cl)c2ccccc12`, the T/C (dose: 100.0 mg/kg/injection, schedule: Q01DX001 (ip), vehicle: Klucel (hydroxypropylcellulose) (HPC)) was 96 % of control, the T/C [5] was 86 % of control and the T/C (dose: 200.0 mg/kg/injection, schedule: Q01DX001 (ip), vehicle: Klucel (hydroxypropylcellulose) (HPC)) was 102 % of control. The T/C [6] was 99 % of control, the T/C (dose: 400.0 mg/kg/injection, schedule: Q01DX001 (ip), vehicle: Klucel (hydroxypropylcellulose) (HPC)) was 86 % of control and the T/C [7] was 99 % of control.

`CC(C)C(=O)c1ccc(Cl)s1` was tested, and the T/C (dose: 100.0 mg/kg/injection, schedule: Q04DX003 (sc), vehicle: olive oil, sesame oil, peanut oil) was 104 % of control, the T/C (dose: 200.0 mg/kg/injection, schedule: Q04DX003 (sc), vehicle: olive oil, sesame oil, peanut oil) was 107 % of control and the T/C (dose: 400.0 mg/kg/injection, schedule: Q04DX003 (sc), vehicle: olive oil, sesame oil, peanut oil) was 96 % of control.

In the case of `CCOC(=O)CSCn1ncc2ccc([N+](=O)[O-])cc21`, the T/C [2] is reported as 95 % of control, the T/C [3] is reported as 95 % of control and the T/C [4] is reported as 97 % of control.

`C/C=C1\SC(=S)NC1=O` was tested, and the T/C (dose: 20.0 mg/kg/injection, schedule: Q01DX001 (ip), vehicle: other) was 100 % of control, the T/C (dose: 40.0 mg/kg/injection, schedule: Q01DX001 (ip), vehicle: other) was 100 % of control and the T/C (dose: 80.0 mg/kg/injection, schedule: Q01DX001 (ip), vehicle: other) was 101 % of control.

In the case of `CO[C@H]1Nc2c(ccc(C)c2O)C(=O)N2C=C(/C=C/C(N)=O)C[C@@H]12`, the T/C (dose: 0.05 mg/kg/injection, schedule: Q01DX015 (ip), vehicle: saline) is reported as 104 % of control, the T/C (dose: 0.08 mg/kg/injection, schedule: Q04DX003 (ip), vehicle: saline with Tween-80) is reported as 112 % of control and the T/C (dose: 0.1 mg/kg/injection, schedule: Q01DX015 (ip), vehicle: saline) is reported as 112 % of control. For the same molecule, the T/C (dose: 0.16 mg/kg/injection, schedule: Q04DX003 (ip), vehicle: saline with Tween-80) was 93 % of control, the T/C (dose: 0.2 mg/kg/injection, schedule: Q01DX015 (ip), vehicle: saline) was 112 % of control and the T/C (dose: 0.21 mg/kg/injection, schedule: Q01DX015 (ip), vehicle: saline) was 114 % of control. For the same molecule, the T/C (dose: 0.25 mg/kg/injection, schedule: Q01DX001 (ip), vehicle: saline) was 117 % of control, the T/C (dose: 0.36 mg/kg/injection, schedule: Q01DX015 (ip), vehicle: saline) was 118 % of control and the T/C (dose: 0.4 mg/kg/injection, schedule: Q01DX015 (ip), vehicle: saline) was 110 % of control. For the same molecule, the T/C (dose: 0.5 mg/kg/injection, schedule: Q01DX001 (ip), vehicle: saline) was 117 % of control, the T/C (dose: 0.6 mg/kg/injection, schedule: Q01DX015 (ip), vehicle: saline) was 115 % of control and 117 % of control and the T/C (dose: 1.0 mg/kg/injection, schedule: Q01DX015 (ip), vehicle: saline) was 98 % of control. For the same molecule, the T/C (dose: 1.3 mg/kg/injection, schedule: Q01DX001 (ip), vehicle: saline) was 156 % of control, the T/C (dose: 25.0 micrograms/kg/injection, schedule: Q04DX003 (ip), vehicle: saline) was 121 % of control and the T/C (dose: 50.0 micrograms/kg/injection, schedule: Q04DX003 (ip), vehicle: saline) was 102 % of control. The T/C (dose: 100.0 micrograms/kg/injection, schedule: Q04DX003 (ip), vehicle: saline) was 114 % of control and the T/C (dose: 200.0 micrograms/kg/injection, schedule: Q04DX003 (ip), vehicle: saline) was 107 % of control.
